The results in this text go back to ChEMBL document CHEMBL1131290, “Studies of structure-activity relationship of nitroxide free radicals and their precursors as modifiers against oxidative damage” (1998).

A short description of assay [1]: Compound was evaluated for mean surviving fraction of Chinese hamster V79 cells following a 12-Gy dose of radiation. The format is functional, Cricetulus griseus.
Assay [2] in a line: Compound was evaluated for mean surviving fraction of Chinese hamster V79 cells following a 1-h exposure to H2O2. Type of assay: functional, Cricetulus griseus.

`CC1(C)CCC(C)(C)N1O` returned a Radiation prot in assay [1] of 0.7. Besides, in assay [2], the H2O2 prot came out at 2.3.
